Experimental data from patent US20250034127A1, “AUTOPHAGY INDUCING COMPOUNDS AND USES THEREOF, IN PARTICULAR FOR DISEASES OF THE CNS” (Samsara Therapeutics Inc., priority 2021, published 2025).

How the values were obtained:
SH-SY5Y cells = assay: Acidic vesicle formation in SH-SY5Y cells (LysoTracker Deep Red); assay type: cell-based, human; conditions: 24 hours, relative to DMSO-treated control
Experimental: This is evidence for significant stimulation of autophagy by this compound under these conditions. SH-SY5Y cells are a human-derived neuroblastoma cell line widely used in in vitro models of neurological disorders (Ross R A, Spengler B A, Biedler J L. Coordinate morphological and biochemical interconversion of human neuroblastoma cells. J Natl Cancer Inst. 1983 October; 71 (4): 741-7. PMID: 6137586).
A brief description of the procedure employed is outlined here: • Day 1: Cells were seeded at 15K cells/well in the middle 60 wells of 6×96 well Cellvis imaging plates • Day 2: Media was replaced with 90 μl of DMEM/F12 (+10% FBS/1% P/S) containing NucBlue Live and the cells were treated with 10 μl of compound (10× concentrated) in triplicate for 24 hours. • Day3: Treatment was removed and cells were incubated for 30 minutes with LysoTracker™ Deep Red dye. Cells were washed twice with media and immediately imaged on EVOS M7000 at ×20 (6 images per well, 30 minutes imaging time/plate). Images were analysed using Celleste Image analysis software.

[1] = tested on: primary culture of dopaminergic Tyrosine hydroxylase (TH)-positive neurons; assay: Cellular model of Parkinson's disease (MPTP/MPP+ injury); assay type: cell-based, rat
From the text: This model (run by Neuro-Sys SAS, France) is based on a primary culture of dopaminergic Tyrosine hydroxylase (TH)-positive neurons injured with the dopaminergic neurons-specific toxin (DA-toxin) 1-methyl-4-phenyl-1,2,3,6 tetrahydropyridine (MPTP, a prodrug of MPP^+) (Dauer and Przedborski, 2003). Any substances reducing DA-toxin neurotoxicity may be useful as a new therapeutic agent for the treatment or prevention of PD.
Primary culture of mesencephalic neurons: Rat dopaminergic neurons were cultured as described by Visanji et al., 2008 and Callizot et al., 2019. Briefly, pregnant female rat (Wistar) of 15 days of gestation were killed using a deep anesthesia with CO2 chamber and a cervical dislocation. The midbrains obtained from 15-day-old rat embryos (Janvier, France) were dissected under a microscope. The embryonic midbrains will be removed and placed in ice-cold medium of Leibovitz (L15) containing 2% of Penicillin-Streptomycin (PS) and 1% of bovine serum albumin (BSA). The ventral portion of the mesencephalic flexure, a region of the developing brain rich in dopaminergic neurons, was used for the cell preparations.
The midbrains were dissociated by trypsinisation for 20 min at 37° C. (solution at a final concentration of 0.05% trypsin and 0.02% EDTA). The reaction was stopped by the addition of Dulbecco's modified Eagle's medium (DMEM) containing DNAase I grade II (0.5 mg/mL) and 10% of foetal calf serum (FCS). Cells were then mechanically dissociated by 3 passages through a 10 ml pipette. Cells were then centrifuged at 180×g for 10 min at +4° C. on a layer of BSA (3.5%) in L15 medium. The supernatant was discarded, and the cell pellets re-suspended in a defined culture medium consisting of Neurobasal supplemented with B27 (2%), L-glutamine (2 mM) and 2% of PS solution and 10 ng/mL of Brain-derived neurotrophic factor (BDNF) and 1 ng/ml of Glial-Derived Neurotrophic Factor (GDNF). Viable cells were counted in a Neubauer cytometer using the trypan blue exclusion test. The cells were seeded at a density of 40,000 cells/well in 96 well-plates (pre-coated with poly-L-lysine) and maintained in a humidified incubator at 37° C. in 5% CO2/95% air atmosphere. Half of the medium was changed every 2 days with fresh medium. The wells of first and last lines and columns […] (to avoid any edge effect) and were be filled with sterile water.
• i) Pre-incubation. On day 6 of culture, the test compounds were dissolved in PBS or DMSO and incubated for 1 hour before the MPTP exposure. • ii) Injury. One hour after the application of test compound, MPTP was added to a final concentration of 4 μM, diluted in control medium still in presence of compounds/inhibitors for 48 h. Test compounds were tested on one culture in 96-well plate (n=6 culture wells per condition).
Immunostaining: TH and α-Synuclein. 48 Hours after intoxication, the cell culture supernatant was removed, and the cells were fixed by a solution of 4% paraformaldehyde in PBS, pH=7.3 for 20 min at room temperature. The cells were washed twice in PBS, and then permeabilized. Non-specific sites were blocked with a solution of PBS containing 0.1% of saponin and 1% FCS for 15 min at room temperature. The cultures were incubated with: (a) monoclonal anti-Tyrosine Hydroxylase (TH) antibody produced in mouse at dilution of 1/10000 in PBS containing 1% FCS, 0.1% saponin, for 2 hours at room temperature, and (b) polyclonal anti-alpha synuclein (α-synuclein) antibody produced in rabbit at dilution of 1/200 in PBS containing 1% FCS, 0.1% saponin, for 2 h at room temperature.
Automatic computer analysis. For each condition, 20 pictures (representing the whole well area) were automatically taken using ImageXpress® (Molecular Devices) at 10× magnification (20 pictures, for TH and α-synuclein into TH neurons) using the same acquisition parameters. From images, analyses was directly and automatically performed by MetaXpress® (Molecular Devices). […]

[2] = tested on: Human osteosarcoma U2OS cells; assay: Assay to measure lysosome and autolysosome (acidic vesicle) formation in U2OS cells; assay type: cell-based; conditions: for activation at 0.8 µM: Homo sapiens, concentration of 0.8 μM, read-out: Activity (percentage increase in acidic vesicle formation over the DMSO-treated control); for acidic vesicle formation relative to a DMSO-treated control: concentration of 10 μM, 24 hours
Experimental: Lysosomes play a fundamental role in the autophagic pathway by fusing with autophagosomes and creating ‘autolysosomes’ in order to digest their contents. Stimulation of lysosome and autolysosome formation by a compound is indicative of a stimulation of autophagy. The ability of compounds to stimulate lysosome and autolysosome formation, and thus autophagy, in live cells was assessed via fluorescent microscopy using various fluorescent stains for labelling and tracking acidic organelles (including lysosomes and autolysosomes) such as: LysoView™ 650 (70059 and 70059-T, Biotium), Lyso View™633 (70058 and 70058-T, Biotium) and LysoTracker™ Deep Red (L12492, ThermoFisher Scientific). The cellular phenotype was quantitatively assessed for the induction of acidic vesicle formation and compared to a non-treated control, thus providing a measure of the ability of the compound under investigation to stimulate autophagy.
Representative procedure using LysoView™ 633 dye or LysoTracker™ Deep Red dye: Human osteosarcoma U2OS cells (40,000 cells/well) were seeded in a 24 well glass bottom plate (Sensoplate, Greiner Bio-One) and were incubated overnight in a humidified atmosphere at 37° C. and 5% CO2. Cells were grown in DMEM (Gibco) supplemented with 10% Fetal Bovine Serum (FBS) and 100 units/ml penicillin and 100 μg/ml streptomycin (Invitrogen). After the attachment period, cells were treated with different compounds of interest (at various concentrations in DMSO) or DMSO (non-treated control) in cell culture medium and were incubated for 24 hours. Compound-containing medium was removed and cells were incubated with pre-warmed cell culture medium containing 1× Lyso View™ 633 (70058 and 70058-T, Biotium) or 50 nM LysoTracker™ Deep Red (L12492, ThermoFisher Scientific) for 45 minutes at 37° C. Finally, cell nuclei were stained for 10 minutes using Hoechst 33342 (1 μg/mL) and then the medium was replaced with fresh medium. The 24 well plate was then fitted into a heated stage on the microscope and cells maintained at 37° C. Images were captured using appropriate filter set for Cy5 and DAPI detection with the EVOS M7000 Microscope (ThermoFisher Scientific). The cellular phenotype was visually assessed for the induction of acidic vesicle formation relative to the non-treated control; multiple images were acquired and analysed using ImageJ or Cell Profiler.

For `C[C@H]1CN(C(=O)c2cc(-c3cnn(-c4ccccc4)c3)c[nH]2)CCN1` [Compound 3, (3S)-3-methyl-1-[4-(1-phenyl-1H-pyrazol-4-yl)-1H-pyrrole-2-carbonyl]piperazine], the “Fold change in acidic vesicle formation at compound concentration of 0.8 μM” value (“Fold change … of 0.8 μM” below) (SH-SY5Y cells) was 1.6 fold and the “Fold change in acidic vesicle formation at compound concentration of 10 μM” value (shortened to “Fold change … of 10 μM”) (SH-SY5Y cells) was 3.5 fold.

In the case of `O=C(O)C1CCCN1C(=O)c1csc(-c2cnn(-c3ccccc3)c2)n1` (stereo not shown) [Compound 144, 1-[2-(1-phenyl-1H-pyrazol-4-yl)-1,3-thiazole-4-carbonyl]pyrrolidine-2-carboxylic acid], the “effects in the in vitro model of PD based on MPP+ injury” value [1] is reported as “positive effects”, the “increase in the number of dopaminergic TH positive neurons” value ([1]; 100 nM, compared to MPTP injury alone) is reported as 25% and the “decrease in α-syn area per dopaminergic TH positive neuron” value ([1]; 1 μM, 500 nM and 100 nM, compared to MPP+ injury alone) is reported as over 15%.

In the case of `CCN1CCC(N(C(=O)c2csc(-c3cnn(-c4ccccc4)c3)n2)C(C)C)CC1` [Compound 218, N-(1-ethylpiperidin-4-yl)-2-(1-phenyl-1H-pyrazol-4-yl)-N-(propan-2-yl)-1,3-thiazole-4-carboxamide], the activation at 0.8 µM [2] is reported as 30 to 50%, the “Fold change … of 0.8 μM” value (SH-SY5Y cells) is reported as 1.6 fold and the “Fold change … of 10 μM” value (SH-SY5Y cells) is reported as 4.8 fold.

`C[C@H]1CN(C(=O)c2csc(-c3cnn(-c4ccccc4)n3)n2)CCN1` [Compound 238, (3S)-3-methyl-1-[2-(2-phenyl-2H-1,2,3-triazol-4-yl)-1,3-thiazole-4-carbonyl]piperazine] was tested, and the “Fold change … of 0.8 μM” value (SH-SY5Y cells) was 2.1 fold and the “Fold change … of 10 μM” value (SH-SY5Y cells) was 2.9 fold.

`CC(C)(C)N1CCC(NC(=O)c2csc(-c3cnn(-c4ccccc4)c3)n2)CC1` [Compound 248, N-(1-tert-butylpiperidin-4-yl)-2-(1-phenyl-1H-pyrazol-4-yl)-1,3-thiazole-4-carboxamide] was tested, and the “Fold change … of 0.8 μM” value (SH-SY5Y cells) was 2.2 fold and the “Fold change … of 10 μM” value (SH-SY5Y cells) was 1.9 fold.

`C[C@H]1CN(C(=O)c2cc(-c3cnn(-c4ccccc4)c3)c[nH]2)CCN1` [Compound 255, (3S)-3-methyl-1-[4-(1-phenyl-1H-pyrazol-4-yl)-1H-pyrrole-2-carbonyl]piperazine] showed an activation at 0.8 µM [2] of 50 to 100%.

`CCN1CCC(N(C)C(=O)c2cc(-c3cnn(-c4ccccc4)c3)c[nH]2)CC1` [Compound 256, N-(1-ethylpiperidin-4-yl)-N-methyl-4-(1-phenyl-1H-pyrazol-4-yl)-1H-pyrrole-2-carboxamide] was tested, and the activation at 0.8 µM [2] was 30 to 50%, the “Fold change … of 0.8 μM” value (SH-SY5Y cells) was 1.8 fold and the “Fold change … of 10 μM” value (SH-SY5Y cells) was 2.7 fold.

For `CCN1CCC(NC(=O)c2cc(-c3cnn(-c4ccccc4)c3)c[nH]2)CC1` [Compound 257, N-(1-ethylpiperidin-4-yl)-4-(1-phenyl-1H-pyrazol-4-yl)-1H-pyrrole-2-carboxamide], the activation at 0.8 µM [2] was 50 to 100%, the “Fold change … of 0.8 μM” value (SH-SY5Y cells) was 1.9 fold and the “Fold change … of 10 μM” value (SH-SY5Y cells) was 2.6 fold.

`CCN1CCC(N(C)C(=O)c2cc(-c3nnc(-c4ccccc4)s3)cs2)CC1` [Compound 258, N-(1-ethylpiperidin-4-yl)-N-methyl-4-(5-phenyl-1,3,4-thiadiazol-2-yl)thiophene-2-carboxamide] was tested, and the activation at 0.8 µM [2] was 10 to 30% and the “acidic vesicle formation relative to a DMSO-treated control” value [2] was “only a slight increase”.

`CCN1CCC(NC(=O)c2cc(-c3nnc(-c4ccccc4)s3)cs2)CC1` [Compound 259, N-(1-ethylpiperidin-4-yl)-4-(5-phenyl-1,3,4-thiadiazol-2-yl)thiophene-2-carboxamide] was tested, and the activation at 0.8 µM [2] was 10 to 30%, the “acidic vesicle formation relative to a DMSO-treated control” value [2] was “only a slight increase” and the “Fold change … of 0.8 μM” value (SH-SY5Y cells) was 2.3 fold. The “Fold change … of 10 μM” value (SH-SY5Y cells) was 3.6 fold.
